Measurements as given in patent US9695155B2, “Herbicidal substituted pyrimidinyloxy benzene compounds” (E. I. DU PONT DE NEMOURS AND COMPANY, priority 2013, dated 2017).

Assays:
barnyardgrass = assay: Test A preemergence; format: in vivo, Echinochloa crus-galli; settings: Echinochloa crus-galli, pre-emergence, 240 h
Summary of the method: (§1)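 Injury scores run from 0, no effect, to 100, complete control, judged by eye against untreated plants roughly 10 days after treatment. Chemicals carried a surfactant in a non-phytotoxic solvent and went onto loam–sand soil preemergence or onto one- to two-leaf seedlings postemergence.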

pigweed [1] = assay: Test A preemergence; format: in vivo, Amaranthus retroflexus; settings: Amaranthus retroflexus, pre-emergence
Summary of the method: as §1

velvetleaf = assay: Test A preemergence; format: in vivo, Abutilon theophrasti
Summary of the method: as §1

large (Lg) crabgrass [2] = assay: Test A postemergence; format: in vivo, Digitaria sanguinalis; settings: Digitaria sanguinalis, post-emergence, 240 h
Summary of the method: as §1

giant foxtail [3] = assay: Test A postemergence; format: in vivo, Setaria faberii; settings: Setaria faberi, post-emergence, 240 h
Summary of the method: as §1

morningglory = assay: Test A postemergence; format: in vivo, Ipomoea spp.; settings: Ipomoea, post-emergence, 240 h
Summary of the method: as §1

pigweed [4] = assay: Test A postemergence; format: in vivo, Amaranthus retroflexus; settings: Amaranthus retroflexus, post-emergence
Summary of the method: as §1

corn [5] = assay: Test A postemergence; format: in vivo, Zea mays; settings: Zea mays, post-emergence, 240 h
Summary of the method: as §1

large (Lg) crabgrass [6] = assay: Test C preemergence; format: in vivo, Digitaria sanguinalis; settings: Digitaria sanguinalis, pre-emergence
Summary of the method: (§2)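 Whole-plant greenhouse test with surfactant-containing solvent formulation, applied preemergence to sown loam–sand pots or postemergence to 2–18 cm plants. Scored by eye 13 to 15 days on, 0–100 scale.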

johnsongrass [7] = assay: Test C preemergence; format: in vivo, Sorghum halepense; settings: Sorghum halepense, pre-emergence
Summary of the method: as §2

lambsquarters = assay: Test C preemergence; format: in vivo, Chenopodium album; settings: Chenopodium album, pre-emergence
Summary of the method: as §2

ragweed = assay: Test C preemergence; format: in vivo, Ambrosia elatior; settings: Ambrosia artemisiifolia, pre-emergence
Summary of the method: as §2

galium = assay: Test C postemergence; format: in vivo, Galium aparine; settings: Galium, post-emergence
Summary of the method: as §2

corn [8] = assay: Test C postemergence; format: in vivo, Zea mays; settings: Zea mays, post-emergence
Summary of the method: as §2

giant foxtail [9] = assay: Test C postemergence; format: in vivo, Setaria faberii; settings: Setaria faberi, post-emergence
Summary of the method: as §2

johnsongrass [10] = assay: Test C postemergence; format: in vivo, Sorghum halepense; settings: Sorghum halepense, post-emergence
Summary of the method: as §2

kochia = assay: Test C postemergence; format: in vivo, Kochia scoparia; settings: Bassia scoparia, post-emergence
Summary of the method: as §2

chickweed = assay: Test C postemergence; format: in vivo, Stellaria media; settings: Stellaria media, post-emergence
Summary of the method: as §2

[11] = 125 g ai/ha, 0 to 100 scale where 0 is no effect and 100 is complete control, read-out: Plant response rating, Pigweed
[12] = 125 g ai/ha, 0 to 100 scale where 0 is no effect and 100 is complete control

N#Cc1cccc(Oc2ncc(Cl)cn2)c1-n1cc(C(F)(F)F)cn1 [Compound 58, 3-[(5-chloro-2-pyrimidinyl)oxy]-2-[4-(trifluoromethyl)-1H-pyrazol-1-yl]benzonitrile]
25%: plant injury at 125 g/ha (corn [8]; 125 g ai/ha, postemergence, read-out: Plant response rating (0 to 100), Corn)
15%: Corn plant response rating (crop injury, 0 = no effect, 100 = complete kill) at 62 g/ha (corn [8]; Postemergence, 62 g ai/ha, scale 0 to 100 (0 no effect, 100 complete control)) | pest or weed control at 31 g/ha (giant foxtail [9]; Postemergence, 31 g ai/ha, scale 0 to 100 (0 no effect, 100 complete control), 13 to 15 days, read-out: Plant response rating, Foxtail, Giant) | pest or weed control at 31 g/ha (johnsongrass [10]; Postemergence, 31 g ai/ha, scale 0 to 100 (0 no effect, 100 complete control), 13 to 15 days, read-out: Plant response rating, Johnsongrass) | pest or weed control at 62 g/ha (johnsongrass [10]; Postemergence, 62 g ai/ha, scale 0 to 100 (0 no effect, 100 complete control), read-out: Plant response rating, Johnsongrass)
70%: pest or weed control at 62 g/ha (galium; Postemergence, 62 g ai/ha, scale 0 to 100 (0 no effect, 100 complete control), read-out: Plant response rating, Galium)
45%: plant injury at 250 g/ha (corn [8]; 250 g ai/ha, postemergence, read-out: Plant response rating (0 to 100), Corn)
80%: pest or weed control at 125 g/ha (giant foxtail [9]; 125 g ai/ha, postemergence, read-out: Plant response rating (0 to 100), Foxtail, Giant)
100%: pest or weed control at 125 g/ha (barnyardgrass; 125 g ai/ha, 0 to 100 scale where 0 is no effect and 100 is complete control, read-out: Plant response rating, Barnyardgrass) | pest or weed control at 500 g/ha (barnyardgrass; 500 g ai/ha, 0 to 100 scale, 0 no effect, 100 complete control, approx. 10 days, read-out: Barnyardgrass plant response rating) | pest or weed control at 125 g/ha (pigweed [1]; [11]) | pest or weed control at 500 g/ha (pigweed [1]; 240 h, 500 g ai/ha, 0 to 100 scale, 0 no effect, 100 complete control, approx. 10 days, read-out: Pigweed plant response rating) | pest or weed control at 500 g/ha (velvetleaf; Abutilon theophrasti, pre-emergence, 240 h, 500 g ai/ha, 0 to 100 scale, 0 no effect, 100 complete control, approx. 10 days, read-out: Velvetleaf plant response rating) | pest or weed control at 125 g/ha (large (Lg) crabgrass [2]; 125 g ai/ha, 0 to 100 scale where 0 is no effect and 100 is complete control, read-out: Plant response rating, Crabgrass, Large) | pest or weed control at 500 g/ha (large (Lg) crabgrass [2]; 500 g ai/ha, 0 to 100 scale, 0 no effect, 100 complete control, read-out: Plant response rating Crabgrass, Large) | pest or weed control at 125 g/ha (giant foxtail [3]; 125 g ai/ha, 0 to 100 scale where 0 is no effect and 100 is complete control, read-out: Plant response rating, Foxtail, Giant) | pest or weed control at 500 g/ha (giant foxtail [3]; 500 g ai/ha, 0 to 100 scale, 0 no effect, 100 complete control, read-out: Plant response rating Foxtail, Giant) | pest or weed control at 125 g/ha (morningglory; 125 g ai/ha, 0 to 100 scale where 0 is no effect and 100 is complete control, read-out: Plant response rating, Morningglory) | pest or weed control at 500 g/ha (morningglory; 500 g ai/ha, 0 to 100 scale, 0 no effect, 100 complete control, read-out: Plant response rating Morningglory) | pest or weed control at 125 g/ha (pigweed [4]; [11]) | pest or weed control at 500 g/ha (pigweed [4]; 240 h, 500 g ai/ha, 0 to 100 scale, 0 no effect, 100 complete control, read-out: Plant response rating Pigweed) | Corn plant response rating (crop injury, 0 = no effect, 100 = complete kill) at 125 g/ha (corn [5]; [12]) | plant injury at 500 g/ha (corn [5]; 500 g ai/ha, 0 to 100 scale, 0 no effect, 100 complete control, read-out: Plant response rating Corn) | pest or weed control at 62 g/ha (large (Lg) crabgrass [6]; 62 g ai/ha, preemergence, scale 0 (no effect) to 100 (complete control), read-out: Crabgrass, Large plant response rating) | pest or weed control at 125 g/ha (large (Lg) crabgrass [6]; 125 g ai/ha, preemergence, scale 0 (no effect) to 100 (complete control), read-out: Crabgrass, Large plant response rating) | pest or weed control at 250 g/ha (large (Lg) crabgrass [6]; 250 g ai/ha, preemergence, scale 0 (no effect) to 100 (complete control), read-out: Crabgrass, Large plant response rating) | pest or weed control at 31 g/ha (large (Lg) crabgrass [6]; Preemergence, 31 g ai/ha, scale 0 to 100, 0 no effect, 100 complete control, read-out: Plant response rating, Crabgrass, Large) | pest or weed control at 62 g/ha (johnsongrass [7]; 62 g ai/ha, preemergence, scale 0 (no effect) to 100 (complete control), read-out: Johnsongrass plant response rating) | pest or weed control at 125 g/ha (johnsongrass [7]; 125 g ai/ha, preemergence, scale 0 (no effect) to 100 (complete control), read-out: Johnsongrass plant response rating) | pest or weed control at 250 g/ha (johnsongrass [7]; 250 g ai/ha, preemergence, scale 0 (no effect) to 100 (complete control), read-out: Johnsongrass plant response rating) | pest or weed control at 62 g/ha (lambsquarters; 62 g ai/ha, preemergence, scale 0 (no effect) to 100 (complete control), read-out: Lambsquarters plant response rating) | pest or weed control at 125 g/ha (lambsquarters; 125 g ai/ha, preemergence, scale 0 (no effect) to 100 (complete control), read-out: Lambsquarters plant response rating) | pest or weed control at 250 g/ha (lambsquarters; 250 g ai/ha, preemergence, scale 0 (no effect) to 100 (complete control), read-out: Lambsquarters plant response rating) | pest or weed control at 31 g/ha (lambsquarters; Preemergence, 31 g ai/ha, scale 0 to 100, 0 no effect, 100 complete control, read-out: Plant response rating, Lambsquarters) | pest or weed control at 62 g/ha (ragweed; 62 g ai/ha, preemergence, scale 0 (no effect) to 100 (complete control), read-out: Ragweed plant response rating) | pest or weed control at 125 g/ha (ragweed; 125 g ai/ha, preemergence, scale 0 (no effect) to 100 (complete control), read-out: Ragweed plant response rating) | pest or weed control at 250 g/ha (ragweed; 250 g ai/ha, preemergence, scale 0 (no effect) to 100 (complete control), read-out: Ragweed plant response rating) | pest or weed control at 125 g/ha (kochia; 125 g ai/ha, postemergence, read-out: Plant response rating (0 to 100), Kochia) | pest or weed control at 250 g/ha (kochia; 250 g ai/ha, postemergence, read-out: Plant response rating (0 to 100), Kochia) | pest or weed control at 125 g/ha (chickweed; 125 g ai/ha, postemergence, read-out: Plant response rating (0 to 100), Chickweed) | pest or weed control at 250 g/ha (chickweed; 250 g ai/ha, postemergence, read-out: Plant response rating (0 to 100), Chickweed)
10%: Corn plant response rating (crop injury, 0 = no effect, 100 = complete kill) at 31 g/ha (corn [8]; Postemergence, 31 g ai/ha, scale 0 to 100 (0 no effect, 100 complete control), 13 to 15 days)
35%: pest or weed control at 125 g/ha (johnsongrass [10]; 125 g ai/ha, postemergence, read-out: Plant response rating (0 to 100), Johnsongrass)
85%: pest or weed control at 31 g/ha (johnsongrass [7]; Preemergence, 31 g ai/ha, scale 0 to 100, 0 no effect, 100 complete control, read-out: Plant response rating, Johnsongrass) | pest or weed control at 31 g/ha (ragweed; Preemergence, 31 g ai/ha, scale 0 to 100, 0 no effect, 100 complete control, read-out: Plant response rating, Ragweed) | pest or weed control at 125 g/ha (galium; 125 g ai/ha, postemergence, read-out: Plant response rating (0 to 100), Galium) | pest or weed control at 250 g/ha (johnsongrass [10]; 250 g ai/ha, postemergence, read-out: Plant response rating (0 to 100), Johnsongrass)
95%: pest or weed control at 250 g/ha (galium; 250 g ai/ha, postemergence, read-out: Plant response rating (0 to 100), Galium) | pest or weed control at 250 g/ha (giant foxtail [9]; 250 g ai/ha, postemergence, read-out: Plant response rating (0 to 100), Foxtail, Giant) | pest or weed control at 31 g/ha (kochia; Postemergence, 31 g ai/ha, scale 0 to 100 (0 no effect, 100 complete control), 13 to 15 days, read-out: Plant response rating, Kochia) | pest or weed control at 62 g/ha (kochia; Postemergence, 62 g ai/ha, scale 0 to 100 (0 no effect, 100 complete control), read-out: Plant response rating, Kochia) | pest or weed control at 31 g/ha (chickweed; Postemergence, 31 g ai/ha, scale 0 to 100 (0 no effect, 100 complete control), 13 to 15 days, read-out: Plant response rating, Chickweed) | pest or weed control at 62 g/ha (chickweed; Postemergence, 62 g ai/ha, scale 0 to 100 (0 no effect, 100 complete control), read-out: Plant response rating, Chickweed)
90: Plant response rating, Velvetleaf (velvetleaf; [12])
60%: pest or weed control at 31 g/ha (galium; Postemergence, 31 g ai/ha, scale 0 to 100 (0 no effect, 100 complete control), 13 to 15 days, read-out: Plant response rating, Galium)
40%: pest or weed control at 62 g/ha (giant foxtail [9]; Postemergence, 62 g ai/ha, scale 0 to 100 (0 no effect, 100 complete control), read-out: Plant response rating, Foxtail, Giant)
